Experiment [1] has as its target T1, dUTPase (Deoxyuridine triphosphate nucleotidohydrolase) (Homo sapiens, UniProt P33316).
T1 construct: gene DUT
T1 sequence (P33316 70-252): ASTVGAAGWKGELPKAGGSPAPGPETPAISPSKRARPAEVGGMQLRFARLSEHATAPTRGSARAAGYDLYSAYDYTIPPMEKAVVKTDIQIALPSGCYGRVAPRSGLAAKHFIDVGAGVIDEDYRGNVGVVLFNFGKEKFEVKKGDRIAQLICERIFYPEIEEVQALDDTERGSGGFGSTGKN
Description: EnzChek pyrophosphate coupled assay, recombinant human dUTPase, product inhibition. The class given is biochemical.

In experiment [2] the target is T2, thymidylate synthase (TS) (Homo sapiens, UniProt P04818).
T2 construct: gene TYMS
T2 sequence (P04818 2-313): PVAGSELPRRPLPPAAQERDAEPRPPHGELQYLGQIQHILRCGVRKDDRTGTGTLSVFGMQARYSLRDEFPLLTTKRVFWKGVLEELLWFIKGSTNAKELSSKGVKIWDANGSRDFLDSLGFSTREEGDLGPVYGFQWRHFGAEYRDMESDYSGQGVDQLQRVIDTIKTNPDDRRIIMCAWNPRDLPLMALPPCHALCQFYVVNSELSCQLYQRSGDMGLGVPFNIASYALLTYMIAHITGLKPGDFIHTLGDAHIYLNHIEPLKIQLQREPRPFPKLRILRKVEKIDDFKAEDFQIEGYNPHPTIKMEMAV
Description: western blot shift of TS ([…] to […] kDa, ternary complex) in HCT116 and SW480 cells treated with NUC-3373 or 5-FU. The experiment is classed as cell-based.

In general, Ki refers to the dissociation constant of the complex between target and ligand, obtained from inhibition or displacement. On to `O=c1ccn([C@H]2C[C@H](O)[C@@H](COP(=O)(O)O)O2)c(=O)[nH]1` [dUMP], for which the Ki in experiment [1] turned out to be 5.8 ± 1.4 µM.

As to `O=c1[nH]c(=O)n([C@H]2C[C@H](O)[C@@H](COP(=O)(O)O)O2)cc1F` [FdUMP], the Ki in experiment [1] was determined as 0.62 ± 0.05 µM. Further, the “western blot shift of TS (36 to 38 kDa, ternary complex) in HCT116 and SW480 cel” value in experiment [2] is recorded as “The binding of FdUMP to TS, causing inhibition of the enzyme, is determined by the presence of an upper band”.

These data come from PMC10156769, “The novel anti-cancer fluoropyrimidine NUC-3373 is a potent inhibitor of thymidylate synthase and an effective DNA-damaging agent” (Cancer Chemotherapy and Pharmacology, 2023).
